{"source": "patent US11730743B2", "about": "“Protection of cells from degeneration and treatment of geographic atrophy” (University of Kentucky Research Foundation, priority 2012, dated 2023)", "molecules": {"B1": {"name": "Recombinant IL-18: recombinant IL-18 (Medical & Biological Laboratories) (protein, UniProt P70380 36-192, looked up)", "Interleukin-18": "NFGRLHCTTAVIRNINDQVLFVDKRQPVFEDMTDIDQSASEPQTRLIIYMYKDSEVRGLAVTLSVKDSKMSTLSCKNKIISFEEMDPPENIDDIQSDLIFFQKRVPGHNKMEFESSLYEGHFLACQKEDDAFKLILKKKDENGDKSVMFTLTNLHQS"}}, "key": {"[1]": {"test_system": "wild-type mice", "test": "Alu RNA- or pAlu-induced RPE degeneration after subretinal injection (fundus photographs, ZO-1 flat mounts)", "format": "in vivo", "conditions": "test agent intravitreous", "experimental": "Subretinal injection and imaging. Subretinal injections (1 μL) in mice were performed using a Pico-Injector (PLI-100, Harvard Apparatus). In vivo transfection of plasmids was achieved using 10% Neuroporter (Genlantis). Fundus imaging was performed on a TRC-50 IX camera (Topcon) linked to a digital imaging system (Sony). Immunolabeling of RPE flat mounts was performed using antibodies against human zonula occludens-1 (Invitrogen).\n(§1) Fundus photography. Retinal photographs of dilated mouse eyes were taken with a TRC-50 IX camera (Topcon) linked to a digital imaging system (Sony).\n(§2) Immunolabeling. Human eyes fixed in 2-4% paraformaldehyde were prepared as eyecups, cryoprotected in 30% sucrose, embedded in optimal cutting temperature compound (Tissue-Tek OCT; Sakura Finetek), and cryosectioned into 10 μm sections. Depigmentation was achieved using 0.25% potassium permanganate and 0.1% oxalic acid. Immunohistochemical staining was performed with the rabbit antibody against NLRP3 (1:100, Sigma Aldrich) or rabbit antibody against Caspase-1 (prediluted, AbCam). Isotype IgG was substituted for the primary antibody to assess the specificity of the staining. Bound antibody was detected with biotin-conjugated secondary antibodies, followed by incubation with ABC reagent and visualized by Vector Blue (Vector Laboratories). Levamisole (Vector Laboratories) was used to block endogenous alkaline phosphatase activity. Slides were washed in PBS, counterstained with neutral red (Fisher Scientific), rinsed with deionized water, air dried, and then mounted in Vectamount (Vector Laboratories). Fluorescent labeling of human tissue was performed with the rabbit antibody against PYCARD (1:50, Clone N-15, Santa Cruz Biotechnology). Immunolabeling was visualized by fluorescently conjugated anti-rabbit secondary antibody (Invitrogen). Tissue autofluorescence was quenched by incubating the sections in 0.3% Sudan black (Fisher Scientific). Sections were mounted in Vectashield with DAPI (Vector Laboratories). Mouse RPE/choroid flat mounts were fixed with 4% paraformaldehyde or 100% methanol, stained with rabbit antibodies against human zonula occludens-1 (1:100, Invitrogen) and visualized with Alexa594 (Invitrogen). All images were obtained using the Leica SP-5 or Zeiss Axio Observer Z1 microscopes.\nSubretinal injection. Subretinal injections (1 μL) in mice were performed using a Pico-Injector (PLI-100, Harvard Apparatus). In vivo transfection of plasmids coding for two different Alu sequences (pAlu) or empty control vector (pNull) (Bennett et al., 2008; Kaneko et al., 2011; Shaikh et al., 1997) was achieved using 10% Neuroporter (Genlantis). AAV1-BEST1-Cre (Alexander and Hauswirth, 2008) or AAV1-BEST1-GFP were injected at […] pfu/mL and in vitro transcribed Alu RNA was injected at 0.3 mg/mL.\nDrug treatments. siRNAs formulated in siRNA buffer (20 mM KCL, 0.2 mM MgCl2 in HEPES buffer at pH 7.5; Dharmacon) or phosphate buffered saline (PBS; Sigma-Aldrich); the TLR4 antagonist Ultra Pure Rhodobacter sphaeroides LPS (LPS-RS, InvivoGen), a peptide inhibitor of MyD88 homodimerization IMG-2005 (IMGENEX), control inhibitor (IMGENEX), recombinant IL-18 (Medical & Biological Laboratories), neutralizing rat antibodies against mouse IL-1β (IMGENEX), neutralizing rat antibodies against mouse IL-18 (Medical & Biological Laboratories), isotype control IgGs (R&D Systems or eBioscience as appropriate), Caspase-1 inhibitor Z-WEHD-FMK (R&D Systems), Caspase-3 inhibitor Z-DEVD-FMK (R&D Systems), Caspase control inhibitor Z-FA-FMK (R&D Systems), (2R,4R)-APDC (Enzo Life Sciences), Glipizide (Sigma-Aldrich), Glyburide (Sigma-Aldrich), and P2X7 receptor antagonist A438079 (Tocris Bioscience) were dissolved in phosphate buffered saline (PBS; Sigma-Aldrich) or dimethyl sulfoxide (DMSO; Sigma-Aldrich), and injected into the vitreous humor in a total volume of 1 μL with a 33-gauge Exmire microsyringe (Ito Corporation). […]"}, "[2]": {"test_system": "wild-type mice", "test": "Laser-induced choroidal neovascularization", "format": "in vivo", "conditions": "intravitreous injection"}, "[3]": {"test_system": "human RPE cells", "experimental": "Cell viability. Cell viability measurements were performed using the CellTiter 96 AQueous One Solution Cell Proliferation Assay (Promega) in according to the manufacturer's instructions.\nCell culture. All cell cultures were maintained at 37° C. and 5% CO2. Primary mouse RPE cells were isolated as previously described (Yang et al., 2009) and grown in Dulbecco Modified Eagle Medium (DMEM) supplemented with 20% FBS and standard antibiotics concentrations. Primary human RPE cells were isolated as previously described (Yang et al., 2008) and maintained in DMEM supplemented with 10% FBS and antibiotics. HeLa cells were maintained in DMEM supplemented with 20% FBS and standard antibiotics concentrations. THP-1 cells were cultured in RPMI 1640 medium supplemented with 10% FBS and antibiotics.\nTransient transfection. Human or mouse RPE cells were transfected with pUC19, pAlu, pCDNA3.1/Dicer-FLAG, pCDNA3.1, Alu RNA, NLRP3 siRNA sense, PYCARD siRNA sense, MyD88 siRNA sense, DICER1 antisense oligonucleotide (AS), control (for DICER1) AS, Alu AS, and control (for Alu) AS using Lipofectamine 2000 (Invitrogen) according to the manufacturer's instructions.\nCell viability. MTS assays were performed using the CellTiter 96 AQueous One Solution Cell Proliferation Assay (Promega) according to the manufacturer's instructions. For examining the cytoprotective effect of glycine in Alu RNA induced cell death, human RPE cells were transfected with pNull/pAlu. At 6 h post-transfection the cells were incubated with complete media containing glycine (5 mM) or vehicle, and cell viability was assessed after 24 h. Similarly, human RPE cells primed with LPS (5 μg/ml for 6 h) were treated with ATP (25 μM) in the presence of glycine containing media (5 mM). 30 min post ATP cell viability was assessed as described above."}, "[4]": {"test_system": "mice", "test": "RPE degeneration induced by intravitreous recombinant IL-18", "format": "in vivo", "conditions": "intravitreous", "experimental": "as §1\nas §2, with “microscopes. […]” for “microscopes.”"}, "[5]": {"test_system": "Caspase-3", "test": "Caspase-3 activation in the RPE of wild-type mice", "format": "in vivo", "conditions": "IL-18 alone", "experimental": "Drug treatments. siRNAs formulated in siRNA buffer (20 mM KCL, 0.2 mM MgCl2 in HEPES buffer at pH 7.5; Dharmacon) or phosphate buffered saline (PBS; Sigma-Aldrich); the TLR4 antagonist Ultra Pure Rhodobacter sphaeroides LPS (LPS-RS, InvivoGen), a peptide inhibitor of MyD88 homodimerization IMG-2005 (IMGENEX), control inhibitor (IMGENEX), recombinant IL-18 (Medical & Biological Laboratories), neutralizing rat antibodies against mouse IL-1β (IMGENEX), neutralizing rat antibodies against mouse IL-18 (Medical & Biological Laboratories), isotype control IgGs (R&D Systems or eBioscience as appropriate), Caspase-1 inhibitor Z-WEHD-FMK (R&D Systems), Caspase-3 inhibitor Z-DEVD-FMK (R&D Systems), Caspase control inhibitor Z-FA-FMK (R&D Systems), (2R,4R)-APDC (Enzo Life Sciences), Glipizide (Sigma-Aldrich), Glyburide (Sigma-Aldrich), and P2X7 receptor antagonist A438079 (Tocris Bioscience) were dissolved in phosphate buffered saline (PBS; Sigma-Aldrich) or dimethyl sulfoxide (DMSO; Sigma-Aldrich), and injected into the vitreous humor in a total volume of 1 μL with a 33-gauge Exmire microsyringe (Ito Corporation). […] As a control, Luc siRNA-chol (17+2 nt) was used with identical dosages.\nCaspase-3 activity. The caspase-3 activity was measured using Caspase-3 Fluorimetric Assay (R&D Systems) according to the manufacturer's instruction."}}}
{"molecule": "COc1ccc(Cl)cc1C(=O)NCCc1ccc(S(=O)(=O)NC(=O)NC2CCCCC2)cc1", "note": "[glyburide, Glyburide]", "values": [{"measurement": "pAlu-induced RPE degeneration", "setting": "[1]; subretinal pAlu", "value": "inhibited"}]}
{"molecule": "O=C(Nc1nc2ccccc2n1CCN1CCOCC1)c1cccc([N+](=O)[O-])c1", "note": "[N-(2-Morpholinylethyl)-2-(3-nitrobenzoylamido)-benzimidazole]", "values": [{"measurement": "laser-induced choroidal neovascularization", "setting": "[2]", "value": "reduced"}, {"measurement": "Alu RNA-induced cytotoxicity, viability of human RPE cells", "setting": "[3]", "value": "protects"}, {"measurement": "pAlu-induced cytotoxicity, viability of human RPE cells", "setting": "[3]", "value": "protects"}, {"measurement": "Alu RNA-induced RPE degeneration", "setting": "[1]; subretinal Alu RNA", "value": "blocked"}]}
{"molecule": "NCC(=O)O", "note": "[glycine]", "values": [{"measurement": "human RPE cell death induced by LPS+ATP", "setting": "[3]; LPS 5 μg/ml 6 h, ATP 25 μM, glycine 5 mM, 30 min post ATP", "value": "inhibited"}]}
{"molecule": "B1", "values": [{"measurement": "RPE degeneration induced by recombinant IL-18", "setting": "[4]; Casp1−/− mice", "value": "induced RPE degeneration"}, {"measurement": "RPE degeneration induced by recombinant IL-18", "setting": "[4]; wild-type mice", "value": "induced RPE degeneration"}, {"measurement": "Caspase-3 activation in the RPE", "setting": "[5]", "value": "induced Caspase-3 activation"}]}
